Data: BindingDB's records for PubMed 2971798 (University of Pennsylvania, 1988)

Experiments:
[1] = molecular target: T1, 5-hydroxytryptamine receptor 2C (Canis lupus familiaris, UniProt Q60F97)
T1 sequence (Q60F97 whole entry): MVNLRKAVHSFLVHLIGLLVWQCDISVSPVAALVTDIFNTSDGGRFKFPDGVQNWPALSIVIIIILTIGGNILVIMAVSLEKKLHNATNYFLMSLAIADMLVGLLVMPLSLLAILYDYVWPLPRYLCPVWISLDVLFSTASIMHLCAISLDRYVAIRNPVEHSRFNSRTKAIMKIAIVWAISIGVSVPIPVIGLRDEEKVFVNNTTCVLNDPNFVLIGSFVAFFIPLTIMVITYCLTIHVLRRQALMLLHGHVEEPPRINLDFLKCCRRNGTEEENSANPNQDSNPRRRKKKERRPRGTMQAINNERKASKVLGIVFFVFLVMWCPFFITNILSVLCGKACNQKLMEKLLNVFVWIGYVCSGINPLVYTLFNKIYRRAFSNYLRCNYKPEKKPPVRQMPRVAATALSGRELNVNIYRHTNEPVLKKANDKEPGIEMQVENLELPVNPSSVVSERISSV

D(2) dopamine receptor = D(2) dopamine receptor (Canis lupus familiaris, UniProt Q9GJU1)
D(2) dopamine receptor, sequence (Q9GJU1 whole entry): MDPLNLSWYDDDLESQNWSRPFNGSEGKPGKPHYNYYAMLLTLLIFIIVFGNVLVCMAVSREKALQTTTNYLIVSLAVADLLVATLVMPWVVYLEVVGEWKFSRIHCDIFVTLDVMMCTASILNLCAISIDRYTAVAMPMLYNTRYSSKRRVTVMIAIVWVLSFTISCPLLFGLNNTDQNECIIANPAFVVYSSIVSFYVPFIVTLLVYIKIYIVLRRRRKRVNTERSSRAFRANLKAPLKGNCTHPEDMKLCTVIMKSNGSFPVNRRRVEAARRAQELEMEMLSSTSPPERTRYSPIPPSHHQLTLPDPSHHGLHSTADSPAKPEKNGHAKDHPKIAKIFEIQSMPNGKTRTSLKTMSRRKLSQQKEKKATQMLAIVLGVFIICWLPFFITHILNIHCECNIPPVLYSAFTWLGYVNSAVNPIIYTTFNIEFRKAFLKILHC

Row | SMILES | Ki [1] | Ki (D(2) dopamine receptor)
1 | NCCc1c[nH]c2ccc(O)cc12 [[3H]-5-HT] |  | > 10000 nM
2 | OCCN1CCN(CC/C=C2/c3ccccc3Sc3ccc(C(F)(F)F)cc32)CC1 [(cis) 2-{4-[3-(2-Trifluoromethyl-thioxanthen-9-ylidene)-propyl]-piperazin-1-yl}-ethanol(Flupentixol)] |  | 30 nM
3 | NCCc1ccc(O)c(O)c1 |  | > 10000 nM

The remaining lines, values ahead:

Row | Ki [1] | Ki (D(2) dopamine receptor) | SMILES
4 | 2.8 nM | 161 nM | CN1CCN2c3ccccc3Cc3ccccc3[C@H]2C1 [MIANSERIN (+)]
5 | 13 nM | 166 nM | O=C(c1ccc(F)cc1)C1CCN(CCn2c(=O)[nH]c3ccccc3c2=O)CC1 [3-(2-{4-[(4-fluorophenyl)carbonyl]piperidin-1-yl}ethyl)-1,2,3,4-tetrahydroquinazoline-2,4-dione]
